Measurements: patent US7541367B2, “3-benzoimidazolyl-pyrazolopyridines useful in treating kinase disorders” (Janssen Pharmaceutica, N.V., priority 2005, dated 2009)

Tests used:
[1] = target: T1, Aurora-A (Mus musculus, UniProt P97477); assay: Aurora-A kinase screening assay (33P-ATP FlashPlate); format: biochemical; details: 10 μM ATP, 1 hr at 30° C;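 note: His-tagged mouse Aurora-A phosphorylating a biotinylated peptide captured on streptavidin plates, read as 33P uptake by scintillation counting, 1% DMSO, inhibition scaled between per-plate maximum and minimum signals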
T1 construct: polyhistidine (N)
T1 sequence (P97477 1-395): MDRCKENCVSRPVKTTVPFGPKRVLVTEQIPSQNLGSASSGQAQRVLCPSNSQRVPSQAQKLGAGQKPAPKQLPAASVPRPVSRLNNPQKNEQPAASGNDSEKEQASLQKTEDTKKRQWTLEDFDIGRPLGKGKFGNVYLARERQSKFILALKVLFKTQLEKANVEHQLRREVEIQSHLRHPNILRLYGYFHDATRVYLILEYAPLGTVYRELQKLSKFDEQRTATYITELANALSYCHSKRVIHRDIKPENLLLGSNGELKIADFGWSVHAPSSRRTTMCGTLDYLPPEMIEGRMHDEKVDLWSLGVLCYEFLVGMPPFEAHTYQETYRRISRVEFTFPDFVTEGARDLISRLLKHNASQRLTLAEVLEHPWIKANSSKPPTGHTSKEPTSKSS

[2] = target: T2, VEGF-R2 (Rattus norvegicus, UniProt O08775); assay: VEGF-R2 kinase screening assay (33P-ATP FlashPlate); format: biochemical; details: rat VEGF-R2 kinase domain; 10 μM ATP; 1 hr at 30° C;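 note: Read-out is ³³P incorporation from ³³P-γ-ATP into biotinylated peptide substrate captured on streptavidin FlashPlate, counted by scintillation, 1% DMSO final, inhibition scaled between per-plate maximum and minimum signals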
T2 construct: polyhistidine (N)

[3] = system: HeLa cervical adenocarcinoma; assay: Cell Proliferation Inhibition Assay (14C-thymidine incorporation), HeLa; format: cell-based; details: Homo sapiens, HeLa, HeLa cells;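 note: test compound in DMSO added to cells seeded in scintillating 96-well plates, DMSO-only wells as control, uptake of methyl 14C-thymidine into new DNA counted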
[4] = target: T3, HER2 (Homo sapiens, UniProt P04626); assay: HER2 kinase screening assay (33P-ATP FlashPlate); format: biochemical; details: GST-HIS6 HER-2 aa 679 to 1255; 10 μM ATP; 1 hr at 30° C;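 note: Biotin-poly(GT) 4:1 peptide captured on streptavidin FlashPlate, 33P transfer from γ-ATP read by scintillation counting, lower incorporation means inhibition, 1% DMSO final, 100 µL reaction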
T3 construct: GST (Glutathione-S-Transferase) (N); HIS6 (N); thrombin cleavage site (N); purchased Proqinase, Freiburg, Germany

[5] = target: T4, CDK1 (Homo sapiens, UniProt P06493); assay: CDK-1 kinase screening assay (33P-ATP FlashPlate); format: biochemical; details: human CDK1 with cyclin B; 10 μM ATP; 1 hr at 30° C
T4 construct: purchased New England Biolabs, Beverly, Mass; 6020; host or cells: insect cells

[6] = system: HCT-116 colon carcinoma; assay: Cell Proliferation Inhibition Assay (14C-thymidine incorporation), HCT-116; format: cell-based; details: Homo sapiens, HCT-116, HCT-116 cells;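 note: proliferation measured as methyl 14C-thymidine uptake into new DNA, counted in 96-well scintillating microplates, compared with DMSO-only control wells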
[7] = target: T5, RET (Homo sapiens, UniProt P07949); assay: RET kinase screening assay (33P-ATP FlashPlate); format: biochemical; details: human RET kinase domain; 10 μM ATP; 1 hr at 30° C;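 note: biotinylated peptide substrate captured on streptavidin FlashPlate, 33P phosphate transfer read by scintillation counting, 1% DMSO, lower incorporation means inhibition, percent relative to per-plate maximum and minimum signals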
T5 construct: polyhistidine (N)
T5 sequence (P07949 658-1114 limits assumed): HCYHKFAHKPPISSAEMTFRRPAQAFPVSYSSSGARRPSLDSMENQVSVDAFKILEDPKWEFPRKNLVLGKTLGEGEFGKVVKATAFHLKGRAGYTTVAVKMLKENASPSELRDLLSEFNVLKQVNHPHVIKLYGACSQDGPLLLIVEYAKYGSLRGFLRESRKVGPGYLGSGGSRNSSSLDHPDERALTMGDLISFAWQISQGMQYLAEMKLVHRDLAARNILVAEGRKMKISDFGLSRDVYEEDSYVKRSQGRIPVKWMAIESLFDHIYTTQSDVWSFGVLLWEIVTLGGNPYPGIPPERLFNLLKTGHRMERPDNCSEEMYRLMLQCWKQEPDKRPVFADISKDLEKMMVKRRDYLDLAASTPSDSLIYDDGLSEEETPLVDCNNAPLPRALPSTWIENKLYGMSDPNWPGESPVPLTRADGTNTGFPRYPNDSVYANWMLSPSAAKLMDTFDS

[8] = system: A375 malignant melanoma; assay: Cell Proliferation Inhibition Assay (14C-thymidine incorporation), A375; format: cell-based; details: Homo sapiens, A-375, A375 cells;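 note: proliferation measured by radiolabelled thymidine uptake into new DNA, counted in scintillating 96-well plates, compound-treated wells compared with DMSO-only control wells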

T3 sequence (P04626 679-1255): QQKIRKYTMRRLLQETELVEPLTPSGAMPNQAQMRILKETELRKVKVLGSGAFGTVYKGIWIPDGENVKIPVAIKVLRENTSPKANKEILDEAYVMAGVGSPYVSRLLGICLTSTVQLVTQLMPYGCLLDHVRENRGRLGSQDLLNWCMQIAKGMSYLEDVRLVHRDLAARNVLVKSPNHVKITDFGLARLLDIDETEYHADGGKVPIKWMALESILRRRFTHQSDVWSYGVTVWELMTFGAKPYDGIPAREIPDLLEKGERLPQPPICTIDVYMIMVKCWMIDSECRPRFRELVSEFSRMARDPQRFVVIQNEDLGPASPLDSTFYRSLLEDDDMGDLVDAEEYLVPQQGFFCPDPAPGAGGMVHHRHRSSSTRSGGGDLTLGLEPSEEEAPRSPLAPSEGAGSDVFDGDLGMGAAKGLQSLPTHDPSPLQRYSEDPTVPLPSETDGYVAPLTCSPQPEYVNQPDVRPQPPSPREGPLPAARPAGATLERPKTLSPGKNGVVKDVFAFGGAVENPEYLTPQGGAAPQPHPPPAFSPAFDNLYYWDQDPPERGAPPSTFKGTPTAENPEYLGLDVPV
T2 sequence (O08775 786-1343): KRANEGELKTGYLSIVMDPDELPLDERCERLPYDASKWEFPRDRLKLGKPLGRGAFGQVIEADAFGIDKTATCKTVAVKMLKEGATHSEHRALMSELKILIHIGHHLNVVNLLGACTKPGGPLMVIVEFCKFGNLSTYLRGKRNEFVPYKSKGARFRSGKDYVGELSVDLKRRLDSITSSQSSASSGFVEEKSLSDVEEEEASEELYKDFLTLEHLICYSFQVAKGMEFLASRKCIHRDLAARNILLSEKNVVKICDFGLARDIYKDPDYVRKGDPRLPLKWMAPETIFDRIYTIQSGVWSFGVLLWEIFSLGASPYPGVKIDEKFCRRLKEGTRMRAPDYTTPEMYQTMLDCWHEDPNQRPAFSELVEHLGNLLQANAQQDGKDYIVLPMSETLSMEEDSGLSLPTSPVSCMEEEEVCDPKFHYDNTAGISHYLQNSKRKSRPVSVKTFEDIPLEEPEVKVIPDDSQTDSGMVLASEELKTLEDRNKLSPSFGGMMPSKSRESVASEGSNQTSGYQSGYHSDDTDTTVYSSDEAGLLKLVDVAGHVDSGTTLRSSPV
T4 sequence (P06493 whole entry): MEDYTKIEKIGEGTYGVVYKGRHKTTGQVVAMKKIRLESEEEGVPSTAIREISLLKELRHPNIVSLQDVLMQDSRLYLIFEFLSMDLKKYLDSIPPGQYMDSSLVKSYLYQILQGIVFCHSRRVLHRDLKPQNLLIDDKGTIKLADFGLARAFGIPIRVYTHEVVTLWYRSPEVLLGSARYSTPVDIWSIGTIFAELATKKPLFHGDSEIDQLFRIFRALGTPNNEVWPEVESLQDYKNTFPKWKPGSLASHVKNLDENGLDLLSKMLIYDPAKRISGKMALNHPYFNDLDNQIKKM
T4 sequence (P14635 whole entry partner): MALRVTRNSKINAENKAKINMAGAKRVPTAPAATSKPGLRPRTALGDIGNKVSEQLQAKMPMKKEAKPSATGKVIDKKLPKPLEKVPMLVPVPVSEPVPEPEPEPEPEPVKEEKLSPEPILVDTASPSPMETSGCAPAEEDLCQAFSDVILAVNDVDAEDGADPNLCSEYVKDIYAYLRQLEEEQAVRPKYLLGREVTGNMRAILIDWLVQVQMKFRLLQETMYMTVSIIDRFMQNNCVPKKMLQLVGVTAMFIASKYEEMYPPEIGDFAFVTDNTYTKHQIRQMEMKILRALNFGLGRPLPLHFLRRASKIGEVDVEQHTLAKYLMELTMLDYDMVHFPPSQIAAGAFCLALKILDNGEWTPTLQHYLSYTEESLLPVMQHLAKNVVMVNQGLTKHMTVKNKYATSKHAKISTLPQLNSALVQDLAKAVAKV

SMILES	IC50 [1] [nM]	IC50 [2] [nM]	IC50 [3] [nM]	IC50 [4] [nM]	IC50 [5] [nM]	IC50 [6] [nM]	IC50 [7] [nM]	IC50 [8] [nM]
COCc1cccc2[nH]c(-c3n[nH]c4ncc(-c5cncc(CNC(C)(C)C)c5)cc34)nc12 [Cpd 53, tert-butyl-{5-[3-(4-methoxymethyl-1H-benzoimidazol-2-yl)-1H-pyrazolo[3,4-b]pyridin-5-yl]-pyridin-3-ylmethyl}-amine]	1520	37	709	> 10000	104	391	> 1000	328
COCc1cccc2[nH]c(-c3n[nH]c4ncc(-c5cnccc5C)cc34)nc12 [Cpd 57, 3-(4-methoxymethyl-1H-benzoimidazol-2-yl)-5-(4-methyl-pyridin-3-yl)-1H-pyrazolo[3,4-b]pyridine]	> 1000	> 1000	685	> 100000	66.3	68.7	> 10000	119
COCc1cccc2[nH]c(-c3n[nH]c4ncc(-c5ccc(OC)nc5)cc34)nc12 [Cpd 63, 3-(4-methoxymethyl-1H-benzoimidazol-2-yl)-5-(6-methoxy-pyridin-3-yl)-1H-pyrazolo[3,4-b]pyridine]	~100000	319	9960	> 100000	> 10000	120	> 100000	76.3
CCOC(=O)c1cncc(-c2cnc3[nH]nc(-c4nc5c(COC)cccc5[nH]4)c3c2)c1 [Cpd 70, 5-[3-(4-methoxymethyl-1H-benzoimidazol-2-yl)-1H-pyrazolo[3,4-b]pyridin-5-yl]-nicotinic acid ethyl ester]	~100000	~100000	1940	> 100000	> 100000	55.4	> 100000	38.7
FC1(F)Oc2cc3nc(-c4n[nH]c5ncc(-c6cccnc6)cc45)[nH]c3cc2O1 [Cpd 98, 2,2-difluoro-6-(5-pyridin-3-yl-1H-pyrazolo[3,4-b]pyridin-3-yl)-5H-[1,3]dioxolo[4′,5′:4,5]benzo[1,2-d]imidazole]	> 10000	> 100	1610	> 100000	6.6	943	> 100000	1080
c1cncc(-c2cnc3[nH]nc(-c4nc5cc6c(cc5[nH]4)OCO6)c3c2)c1 [Cpd 99, 6-(5-pyridin-3-yl-1H-pyrazolo[3,4-b]pyridin-3-yl)-5H-[1,3]dioxolo[4′,5′:4,5]benzo[1,2-d]imidazole]	~10000	~1000	471	> 100000	3.3	271	> 100000	489
CNCc1cncc(-c2cnc3[nH]nc(-c4nc5ccc(C#N)cc5[nH]4)c3c2)c1 [Cpd 105, 2-[5-(5-methylaminomethyl-pyridin-3-yl)-1H-pyrazolo[3,4-b]pyridin-3-yl]-3H-benzoimidazole-5-carbonitrile]	> 1000	> 10	120	> 10000	1.7	685	> 10	526

Other lines, results leading:

IC50 [1] [nM]	IC50 [2] [nM]	IC50 [3] [nM]	IC50 [4] [nM]	IC50 [5] [nM]	IC50 [6] [nM]	IC50 [7] [nM]	IC50 [8] [nM]	SMILES
> 1000	266	1680	> 100000	1210	26	> 100000	35.8	COCc1cccc2[nH]c(-c3n[nH]c4ncc(-c5c[nH]c6ccccc56)cc34)nc12 [Cpd 39, 5-(1H-indol-3-yl)-3-(4-methoxymethyl-1H-benzoimidazol-2-yl)-1H-pyrazolo[3,4-b]pyridine]
~1000	3050	1600	~100000	471	39.5	> 10000	11.1	COCc1cccc2[nH]c(-c3n[nH]c4ncc(-c5cncc(CN6CCOCC6)c5C)cc34)nc12 [Cpd 60, 3-(4-methoxymethyl-1H-benzoimidazol-2-yl)-5-(4-methyl-5-morpholin-4-ylmethyl-pyridin-3-yl)-1H-pyrazolo[3,4-b]pyridine]
321	4110	1830	> 10000	283	99.2	> 10000	219	COCc1cccc2[nH]c(-c3n[nH]c4ncc(-c5cncc(CN(C)C)c5C)cc34)nc12 [Cpd 61, {5-[3-(4-methoxymethyl-1H-benzoimidazol-2-yl)-1H-pyrazolo[3,4-b]pyridin-5-yl]-4-methyl-pyridin-3-ylmethyl}-dimethyl-amine]
1750	2790	1180	> 100000	68.1	229	~10000	62.3	CNCc1cncc(-c2cnc3[nH]nc(-c4nc5c(COC)cccc5[nH]4)c3c2)c1C [Cpd 62, {5-[3-(4-methoxymethyl-1H-benzoimidazol-2-yl)-1H-pyrazolo[3,4-b]pyridin-5-yl]-4-methyl-pyridin-3-ylmethyl}-methyl-amine]
> 1000	121	1080	> 100000	> 100000	20.4	> 100000	4.4	COCc1cccc2[nH]c(-c3n[nH]c4ncc(-c5ccc(N6CCOCC6)nc5)cc34)nc12 [Cpd 66, 3-(4-methoxymethyl-1H-benzoimidazol-2-yl)-5-(6-morpholin-4-yl-pyridin-3-yl)-1H-pyrazolo[3,4-b]pyridine]
> 100000	> 10000	1980	> 100000	> 10000	24.5	> 100000	10.9	COCc1cccc2[nH]c(-c3n[nH]c4ncc(-c5ccc(N6CCN(C(=O)OC(C)(C)C)CC6)nc5)cc34)nc12 [Cpd 67, 4-{5-[3-(4-methoxymethyl-1H-benzoimidazol-2-yl)-1H-pyrazolo[3,4-b]pyridin-5-yl]-pyridin-2-yl}-piperazine-1-carboxylic acid tert-butyl ester]
~10000	115	9910	> 100000	1280	325	> 100000	160	COCc1cccc2[nH]c(-c3n[nH]c4ncc(-c5cncnc5)cc34)nc12 [Cpd 68, 3-(4-methoxymethyl-1H-benzoimidazol-2-yl)-5-pyrimidin-5-yl-1H-pyrazolo[3,4-b]pyridine]
2450	~1000	417	> 10000	6.81	218	> 10000	343	CCCCNCc1cncc(-c2cnc3[nH]nc(-c4nc5c(COC)cccc5[nH]4)c3c2)c1 [Cpd 79, butyl-{5-[3-(4-methoxymethyl-1H-benzoimidazol-2-yl)-1H-pyrazolo[3,4-b]pyridin-5-yl]-pyridin-3-ylmethyl}-amine]
281	120	861	1920	6.14	431	104	885	CN(C)Cc1cncc(-c2cnc3[nH]nc(-c4nc5cc(N6CCN(C)CC6)ccc5[nH]4)c3c2)c1 [Cpd 88, dimethyl-(5-{3-[5-(4-methyl-piperazin-1-yl)-1H-benzoimidazol-2-yl]-1H-pyrazolo[3,4-b]pyridin-5-yl}-pyridin-3-ylmethyl)-amine]
